# Measurements as given in article PMC8831599, “Defining molecular glues with a dual-nanobody cannabidiol sensor” (Nature Communications, 2022).
# What was measured:
# [1] = molecular target: T1, CA14 (anchor binder nanobody); assay: ITC; […] Å crystal structure of the CA14-CBD-DB21 ternary complex; format: binding
# T1 construct: nanobody CA14, tag-free; CA14 alone in ITC
# TIR1 = molecular target: T2, TIR1 (Arabidopsis thaliana, UniProt Q570C0); assay: ITC; BLI and AlphaScreen with IAA7 degron; format: binding
# T2 construct: TIR1-ASK1 co-expressed complex; with ASK1
# T2 sequence (Q39255 whole entry): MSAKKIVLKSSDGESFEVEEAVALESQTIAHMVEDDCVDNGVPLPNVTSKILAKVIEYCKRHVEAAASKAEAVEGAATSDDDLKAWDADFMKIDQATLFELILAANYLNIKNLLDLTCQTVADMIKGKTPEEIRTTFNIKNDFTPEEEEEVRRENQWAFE
# T2 sequence (Q570C0 whole entry): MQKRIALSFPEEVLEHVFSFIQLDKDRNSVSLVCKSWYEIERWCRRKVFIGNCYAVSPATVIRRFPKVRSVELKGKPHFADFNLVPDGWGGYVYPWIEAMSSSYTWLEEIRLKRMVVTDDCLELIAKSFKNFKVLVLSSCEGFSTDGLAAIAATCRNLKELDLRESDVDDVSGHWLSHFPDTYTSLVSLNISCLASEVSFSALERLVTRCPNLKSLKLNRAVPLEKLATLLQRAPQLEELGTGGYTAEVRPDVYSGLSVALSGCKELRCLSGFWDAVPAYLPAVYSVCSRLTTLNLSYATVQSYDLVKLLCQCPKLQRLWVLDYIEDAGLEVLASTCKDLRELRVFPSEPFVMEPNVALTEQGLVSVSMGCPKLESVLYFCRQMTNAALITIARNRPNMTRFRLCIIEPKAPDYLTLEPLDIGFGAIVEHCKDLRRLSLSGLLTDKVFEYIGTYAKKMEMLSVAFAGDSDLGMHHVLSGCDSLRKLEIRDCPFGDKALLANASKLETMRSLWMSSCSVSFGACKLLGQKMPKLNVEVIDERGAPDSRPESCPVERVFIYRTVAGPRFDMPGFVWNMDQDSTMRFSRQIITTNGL
Compound,Kd [1] [µM],Kd (TIR1) [µM]
"C=C(C)[C@@H]1CCC(C)=C[C@H]1c1c(O)cc(CCCCC)cc1O [CBD, cannabidiol]",2.2,
O=C(O)Cc1c[nH]c2ccccc12 [auxin],,13.4
